Legend:
[1] = target: T1, full-length beta-Catenin (Uniprot ID P35222) (Homo sapiens, UniProt P35222); assay: Fluorescence polarization IC50 (beta-catenin / 5FAM-TCF4 10-53 competition); type: binding; conditions: fluorescence polarization; read-out: beta-Catenin FP IC50
T1 construct: 10 nM full-length beta-Catenin (Uniprot ID P35222)
T1 sequence (P35222 1-781): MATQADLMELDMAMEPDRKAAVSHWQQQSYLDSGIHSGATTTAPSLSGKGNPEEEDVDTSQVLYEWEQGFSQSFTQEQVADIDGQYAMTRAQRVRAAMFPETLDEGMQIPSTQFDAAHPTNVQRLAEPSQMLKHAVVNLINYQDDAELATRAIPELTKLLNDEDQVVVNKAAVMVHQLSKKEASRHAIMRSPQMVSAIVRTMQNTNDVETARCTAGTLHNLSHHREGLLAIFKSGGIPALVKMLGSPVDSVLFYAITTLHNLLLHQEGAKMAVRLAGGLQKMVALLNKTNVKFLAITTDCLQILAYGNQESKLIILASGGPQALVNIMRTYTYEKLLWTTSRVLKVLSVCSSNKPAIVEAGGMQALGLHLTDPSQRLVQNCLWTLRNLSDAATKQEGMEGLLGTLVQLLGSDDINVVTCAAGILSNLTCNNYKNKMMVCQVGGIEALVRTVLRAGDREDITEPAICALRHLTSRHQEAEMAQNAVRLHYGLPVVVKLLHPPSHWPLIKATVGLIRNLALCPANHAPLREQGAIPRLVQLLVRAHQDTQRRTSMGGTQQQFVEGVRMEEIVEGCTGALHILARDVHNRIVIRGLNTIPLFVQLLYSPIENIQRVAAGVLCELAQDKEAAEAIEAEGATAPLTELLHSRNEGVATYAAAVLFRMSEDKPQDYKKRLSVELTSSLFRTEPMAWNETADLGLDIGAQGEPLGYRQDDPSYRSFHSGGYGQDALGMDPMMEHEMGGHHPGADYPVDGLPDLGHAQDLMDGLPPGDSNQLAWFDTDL

[2] = target: T2, beta-catenin/TCF4 engagement (Homo sapiens, UniProt P35222); assay: Nano-BRET target engagement assay (B-cat-Halo & TCF4-Luc in HEK293 cells); type: cell-based; conditions: read-out: NanoBRET Abs IC50
T2 construct: expressed in transfected cells; host or cells: HEK293
T2 sequence (P35222 1-781): T1 sequence (P35222 1-781)

Row | IC50 [1] [nM] | IC50 [2] [nM] | SMILES
1 | 6 | 12900 | CC(=O)N1CCC[C@]12CC=CCCCC1(CCCC=CCCCOC(=O)N3CC[C@@](C(=O)N[C@@H](Cc4ccsc4)C(=O)N[C@@H](Cc4csc5ccccc45)C(=O)N[C@@H](CCC(N)=O)C(N)=O)(C3)NC(=O)[C@H](CCC(=O)N3CCNCC3)NC(=O)[C@H](Cc3ccccc3)NC(=O)[C@H](C)NC(=O)[C@H](C)NC(=O)[C@H](CN(CC(=O)O)CC(F)(F)F)NC(=O)[C@H](CC(=O)O)NC1=O)NC(=O)[C@H](CC(C)(C)C)NC(=O)[C@H](CC(=O)O)NC2=O (stereo partly drawn) [I-1941, Ac-PL3-Asp-Npg-B5-Asp-TfeGA-Ala-Ala-Phe-[Ppz]GlnR-PyrS2-3Thi-BztA-Gln-NH2]
2 | 11 | 7900 | CC(=O)N1CCC[C@]12CC=CCCCC1(CCCC=CCCCOC(=O)N3CC[C@@](C(=O)N[C@@H](Cc4ccsc4)C(=O)N[C@@H](Cc4csc5ccccc45)C(=O)N[C@@H](CCC(N)=O)C(N)=O)(C3)NC(=O)[C@H](CCC(=O)NCc3ccccc3)NC(=O)[C@H](Cc3ccccc3)NC(=O)[C@H](C)NC(=O)[C@H](C)NC(=O)[C@H](CN(CC(=O)O)CC(F)(F)F)NC(=O)[C@H](CC(=O)O)NC1=O)NC(=O)[C@H](CC(C)(C)C)NC(=O)[C@H](CC(=O)O)NC2=O (stereo partly drawn) [I-1942, Ac-PL3-Asp-Npg-B5-Asp-TfeGA-Ala-Ala-Phe-[NHBn]GlnR-PyrS2-3Thi-BztA-Gln-NH2]
3 | 7 | 3800 | CC(=O)N1CCC[C@]12CC=CCCCC1(CCCC=CCCCOC(=O)N3CC[C@@](C(=O)N[C@@H](Cc4ccsc4)C(=O)N[C@@H](Cc4csc5ccccc45)C(=O)N[C@@H](CCC(N)=O)C(N)=O)(C3)NC(=O)[C@H](CCC(=O)N3CCOCC3)NC(=O)[C@H](Cc3ccccc3)NC(=O)[C@H](C)NC(=O)[C@H](C)NC(=O)[C@H](CN(CC(=O)O)CC(F)(F)F)NC(=O)[C@H](CC(=O)O)NC1=O)NC(=O)[C@H](CC(C)(C)C)NC(=O)[C@H](CC(=O)O)NC2=O (stereo partly drawn) [I-1943, Ac-PL3-Asp-Npg-B5-Asp-TfeGA-Ala-Ala-Phe-[Morph]GlnR-PyrS2-3Thi-BztA-Gln-NH2]
4 | 96 | 28500 | CC(=O)N1CCC[C@]12CC=CCCCC1(CCCC=CCCCOC(=O)N3CC[C@@](C(=O)N[C@@H](Cc4ccsc4)C(=O)N[C@@H](Cc4csc5ccccc45)C(=O)N[C@@H](CCC(N)=O)C(N)=O)(C3)NC(=O)[C@H](CC(C)C)NC(=O)[C@H](Cc3ccccc3)NC(=O)[C@H](C)NC(=O)[C@H](C)NC(=O)[C@H](CCC(=O)S)NC(=O)[C@H](CC(=O)O)NC1=O)NC(=O)[C@H](CC(C)(C)C)NC(=O)[C@H](CC(=O)O)NC2=O (stereo partly drawn) [I-1949, Ac-PL3-Asp-Npg-B5-Asp-GluSH-Ala-Ala-Phe-Leu-PyrS2-3Thi-BztA-Gln-NH2]

Row | SMILES | IC50 [1] [nM] | IC50 [2] [nM]
5 | CC(=O)N1CCC[C@]12CC=CCCCC1(CCCC=CCCCOC(=O)N3CC[C@@](C(=O)N[C@@H](Cc4ccsc4)C(=O)N[C@@H](Cc4csc5ccccc45)C(=O)N[C@@H](CCC(N)=O)C(N)=O)(C3)NC(=O)[C@H](CCC(=O)N3CC[C@@H](N(C)C)C3)NC(=O)[C@H](Cc3ccccc3)NC(=O)[C@H](C)NC(=O)[C@H](C)NC(=O)[C@H](CN(CC(=O)O)CC(F)(F)F)NC(=O)[C@H](CC(=O)O)NC1=O)NC(=O)[C@H](CC(C)(C)C)NC(=O)[C@H](CC(=O)O)NC2=O (stereo partly drawn) [I-1939, Ac-PL3-Asp-Npg-B5-Asp-TfeGA-Ala-Ala-Phe-[RDMAPyr]GlnR-PyrS2-3Thi-BztA-Gln-NH2] | 10 | 20700
6 | CC(=O)N1CCC[C@]12CC=CCCCC1(CCCC=CCCCOC(=O)N3CC[C@@](C(=O)N[C@@H](Cc4ccsc4)C(=O)N[C@@H](Cc4csc5ccccc45)C(=O)N[C@@H](CCC(N)=O)C(N)=O)(C3)NC(=O)[C@H](CCC(=O)N3CCC(N4CCCCC4)CC3)NC(=O)[C@H](Cc3ccccc3)NC(=O)[C@H](C)NC(=O)[C@H](C)NC(=O)[C@H](CN(CC(=O)O)CC(F)(F)F)NC(=O)[C@H](CC(=O)O)NC1=O)NC(=O)[C@H](CC(C)(C)C)NC(=O)[C@H](CC(=O)O)NC2=O (stereo partly drawn) [I-1940, Ac-PL3-Asp-Npg-B5-Asp-TfeGA-Ala-Ala-Phe-[4Pippip]GlnR-PyrS2-3Thi-BztA-Gln-NH2] | 6 | 15400
